Data on one substance can be found in patent publication US9528090B2, “Differentiation of human embryonic stem cells” (Janssen Biotech, Inc., priority 2010, dated 2016).

For assay [1], the system named is human embryonic stem cells line H1. Put plainly: Definitive endoderm differentiation of H1 cells in FBS medium (GDF8/GSK3B inhibitor) with IGF or insulin: FACS and real-time PCR. The assay is classed as cell-based. As to conditions: in the presence of FBS, 10-100 ng/ml, day 4. As to the method: (§1) Cells of the human embryonic stem cells line H1 (p40-p52) were seeded as single cells at a density of 100000 cells/cm^2 on MATRIGEL® (1:30 dilution) (BD Biosciences; Cat #356231)-coated dishes in MEF-CM (mouse embryonic fibroblast conditioned media) supplemented with 16 ng/ml of FGF2 (Catalog#100-18B, PeproTech, NJ) and 10 μM of Y27632 (Rock inhibitor, Catalogue#Y0503, Sigma, Mo.). 72 hrs post seeding, cultures were differentiated into definitive endoderm (DE) as follows: • a. with MCDB-131 (Catalogue#10372-019, Invitrogen, CA) medium supplemented with 0.2% FBS (Catalogue#SH30070.03, Hyclone, UT), 0.0025 g/ml sodium bicarbonate (Catalogue #S3187, Sigma, Mo.), 1× GlutaMax™ (Catalogue #35050-079, Invitrogen, Ca) and 100 ng/ml GDF8 (Catalogue#120-00, PeproTech, NJ) plus 2.5 μM of the GSK3B inhibitor 14-Prop-2-en-1-yl-3,5,7,14,17,23,27-heptaazatetracyclo[19.3.1.1˜2,6˜0.1˜8,12˜]heptacosa-1(25),2(27),3,5,8(26),9,11,21,23-nonaen-16-one for one day, then • b. MCDB-131 medium supplemented with FBS, sodium bicarbonate, Glutamax, and 100 ng/ml GDF8 for an additional three days.
0.5% FBS was used for day 2 and 2% FBS was used for days 3-4. Besides regular FBS, heat treated FBS (Catalogue#F4135, Sigma, Mo.) and charcoal stripped treated FBS (Catalogue#F6765, Sigma, Mo.) were also tested. Some of the FBS treated cultures were also treated with various concentrations of IGF (10-100 ng/ml) or insulin (10-100 ng/ml).
At day 4, samples were collected for analysis by FACS and real-time PCR.
On the technique in general: Real-time PCR tracks product formation cycle by cycle.

Assay [2] has the same test system. Put plainly: Definitive endoderm differentiation of H1 cells, single cell seeding (activin A/WNT-3a): real-time PCR gene expression. As to conditions: BSA medium. The assay is classed as cell-based. As to the method:
as §1, with “a.” for “a. with”, “2% fatty acid-free BSA (Catalog#68700, Proliant, IA),” for “0.2% FBS (Catalogue#SH30070.03, Hyclone, UT),”, “activin A (R&D Systems, MN)” for “GDF8 (Catalogue#120-00, PeproTech, NJ)”, “20 ng/ml WNT-3a (Catalog#1324-WN-002, R&D Systems, MN)” for “2.5 μM of the GSK3B inhibitor 14-Prop-2-en-1-yl-3,5,7,14,17,23,27-heptaazatetracyclo[19.3.1.1˜2,6˜0.1˜8,12˜]heptacosa-1(25),2(27),3,5,8(26),9,11,21,23-nonaen-16-one”, “2% BSA,” for “FBS,”, “activin A” for “GDF8”
In some of the cultures, the cells were treated with the following concentrations of insulin (Catalogue#19278, Sigma, Mo.): 0, 1, 10, 100, 1000, or 10000 ng/ml. At day 4, samples were collected for FACS and gene expression analysis using real-time PCR.

insulin: in assay [1], the “expression of the pluripotency marker NANOG” value is reported as “upregulated”; the “markers associated with definitive endoderm such as SOX17 and CCXR4” value is on record as “dose dependently down regulated”. In addition, in assay [2] (1-100 ng/ml insulin, day 4), the “expression of markers associated with definitive endoderm (FOXA2, SOX17, CER1, CXCR4)” value is listed as “did not significantly affect”. Further, in assay [2] (1-10 μg/ml of insulin), the “expression of NANOG” value is “did increase expression”.
